From US4550102A, “Cephem compounds” (Fujisawa Pharmaceutical Co. Ltd., priority 1981, dated 1985)

How the values were obtained:
Experiment in all cases: In vitro antimicrobial activity, two-fold agar-plate dilution method
Type in all cases: cell-based
E. coli NIHJ JC - 2 = settings: Escherichia coli, heart infusion agar, 37° C., 20 hours, approximately 10^8 viable cells per ml, read-out: MIC (minimal inhibitory concentration)
Description: (§1) Test: In vitro Antimicrobial Activity
(§2) In vitro Antimicrobial activity was determined by the two-fold agar-plate dilution method as described below.
(§3) One loopful of an overnight culture of each test strain in Tripticase-soy broth (approximately 10^8 viable cells per ml) was streaked on heart infusion agar (HI-agar) containing graded concentrations of an antimicrobial agent, and the minimal inhibitory concentration (MIC) was expressed in term of μg/ml after incubation at 37° C. for 20 hours.

K. pneumoniae 20 = settings: Klebsiella pneumoniae, heart infusion agar, 37° C., 20 hours, approximately 10^8 viable cells per ml, read-out: MIC (minimal inhibitory concentration)
Description: as §1, §2, §3

E. coli 31 = settings: Escherichia coli, heart infusion agar, 37° C., 20 hours, approximately 10^8 viable cells per ml, read-out: MIC (minimal inhibitory concentration)
Description: as §1, §2, §3

- MIC (E. coli NIHJ JC - 2): < 0.025 µg/mL
- MIC (K. pneumoniae 20): < 0.025 µg/mL
- MIC (E. coli 31): < 0.025 µg/mL
SMILES: CO/N=C(\C(=O)NC1C(=O)N2C(C(=O)[O-])=C(C[n+]3cccc(N)c3)CSC12)c1csc(N)n1 (stereo not drawn) [Compound A, 7-[2-Methoxyimino-2-(2-aminothiazol-4-yl)acetamido]-3-(3-amino-1-pyridiniomethyl)-3-cephem-4-carboxylate (syn isomer)]
